US12090176B2 (priority 2019, dated 2024)
Like-named read-outs stand apart in the source and are kept apart here.

Tested on: hematopoietic system damage model in which the mouse has been exposed to cyclophosphamide
Format: in vivo, KM mice
Design: unit not given here

C#C[C@]1(O)[C@H](O)C[C@H]2[C@@H]3CCc4cc(OC5CCCC5)ccc4[C@H]3CC[C@@]21C [Nilestriol]
peripheral blood WBC (nilestriol 10 mg/kg group, normal (before modeling)): 13.8 ± 2.5 ×10^12
peripheral blood WBC (nilestriol 10 mg/kg once 6 h after cyclophosphamide, 1 d after modeling): 3.6 ± 0.9 ×10^12
peripheral blood WBC (nilestriol 10 mg/kg once 6 h after cyclophosphamide, 4 d after modeling): 3.5 ± 2.5 ×10^12
peripheral blood WBC (nilestriol 10 mg/kg once 6 h after cyclophosphamide, 6 d after modeling): 8.0 ± 2.5 ×10^12
peripheral blood WBC (nilestriol 10 mg/kg once 6 h after cyclophosphamide, 12 d after modeling): 12.0 ± 5.9 ×10^12
